Measured values from patent US20240251792A1, “WEED CONTROL METHOD” (SYNGENTA CROP PROTECTION AG, priority 2021, published 2024).
Read-outs that look alike come from different tables or passages of the source.

Tests used:
Assay type in all cases: in vivo
AMARE [1] = assay: Biological efficacy, post-emergence glasshouse test (Table 2); details: 1000 g/ha, after 12 days
Summary of the method: (§1)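 Pots in compost; treated at day 1 (pre-em.) or day 7 (post-em.) with 1000 g/ha in acetone/water/Tween 20. After spraying and drying, plants were watered twice daily in the glasshouse. Evaluation at 12 days, 100 = total damage.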

DIGSA [2] = assay: as above; details: 1000 g/ha, after 12 days
Summary of the method: as §1

LOLPE [3] = assay: as above; details: 1000 g/ha, after 12 days
Summary of the method: as §1

STEME [4] = assay: as above; details: 1000 g/ha, after 12 days
Summary of the method: as §1

AMARE [5] = assay: Biological efficacy, pre-emergence glasshouse test (Table 2); details: 1000 g/ha, after 12 days
Summary of the method: as §1

DIGSA [6] = assay: as above; details: 1000 g/ha, after 12 days
Summary of the method: as §1

LOLPE [7] = assay: as above; details: 1000 g/ha, after 12 days
Summary of the method: as §1

STEME [8] = assay: as above; details: 1000 g/ha, after 12 days
Summary of the method: as §1

AMARE [9] = assay: Pre-emergence biological efficacy (Table 3); details: 1000 g/ha, after 13 days
Summary of the method: (§2)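 After sowing in pots and one day of glasshouse cultivation, spray is applied at the desired dose from a 50 g/l acetone/AMA stock diluted in 0.2% Genapol X080. Plants grow at 24/18 °C, 15 h light, 50% humidity, and damage is rated 0–100 after 13 days.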

ECHCG = assay: Pre-emergence biological efficacy (Table 3); details: 1000 g/ha, after 13 days
Summary of the method: as §2

IPOHE = assay: Pre-emergence biological efficacy (Table 3); details: 1000 g/ha, after 13 days
Summary of the method: as §2

LOLPE [10] = assay: Pre-emergence biological efficacy (Table 3); details: 1000 g/ha, after 13 days
Summary of the method: as §2

SETFA = assay: Pre-emergence biological efficacy (Table 3); details: 1000 g/ha, after 13 days
Summary of the method: as §2

SOLNI = assay: Pre-emergence biological efficacy (Table 3); details: 1000 g/ha, after 13 days
Summary of the method: as §2

weeds and/or crops = assay: Post-emergence biological efficacy (Table 4); details: 1000 g/ha, evaluated after 13 days; for pest or weed control at 1000 g/ha: 312 h
Summary of the method: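 Weeds and crops were grown 14 days in a glasshouse, then sprayed post-emergence with compound formulated in acetone/F50 and diluted in 0.2% Genapol X080 to the final dose. Damage was scored after 13 days on a 0–100 scale, where 100 is total damage.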

Row | SMILES | score (100=total damage to plant, 0=no damage to plant) (AMARE [1]) | score (100=total damage to plant, 0=no damage to plant) (DIGSA [2]) | score (100=total damage to plant, 0=no damage to plant) (LOLPE [3]) | score (100=total damage to plant, 0=no damage to plant) (STEME [4]) | score (100=total damage to plant, 0=no damage to plant) (AMARE [5]) | score (100=total damage to plant, 0=no damage to plant) (DIGSA [6]) | score (100=total damage to plant, 0=no damage to plant) (LOLPE [7]) | score (100=total damage to plant, 0=no damage to plant) (STEME [8]) | evaluation (100=total damage to plant; 0=no damage to plant) (LOLPE [10]) | evaluation (100=total damage to plant; 0=no damage to plant) (SOLNI) | damage to plant LOLPE (100=total damage; 0=no damage) (weeds and/or crops) | damage to plant SOLNI (100=total damage; 0=no damage) (weeds and/or crops) | also measured
1 | COc1ccccc1C(F)(F)C(=O)O [Compound 1-9] | 90 | 0 | 0 | 80 | 80 | 0 | 0 | 60 | 20 | 90 | 0 | 60 | evaluation (100=total damage to plant; 0=no damage to plant) (AMARE [9]): 70; evaluation (100=total damage to plant; 0=no damage to plant) (ECHCG): 20; evaluation (100=total damage to plant; 0=no damage to plant) (IPOHE): 60; evaluation (100=total damage to plant; 0=no damage to plant) (SETFA): 20; damage to plant AMARE (100=total damage; 0=no damage) (weeds and/or crops; AMARE): 70; damage to plant ECHCG (100=total damage; 0=no damage) (weeds and/or crops; ECHCG): 0; damage to plant IPOHE (100=total damage; 0=no damage) (weeds and/or crops; IPOHE): 60; damage to plant SETFA (100=total damage; 0=no damage) (weeds and/or crops; SETFA): 0
2 | O=C(O)C(F)(F)c1cccc2ccccc12 [Compound 1-397, 2,2-Difluoro-2-(1-naphthyl)acetic acid] | 70 | 0 | 0 | 80 | 90 | 30 | 70 | 90 | 40 | 100 | 10 | 80 | pest or weed control at 1000 g/ha (AMARE [9]; Amaranthus retroflexus, 312 h, read-out: evaluation (100=total damage to plant; 0=no damage to plant)): 80%; pest or weed control at 1000 g/ha (ECHCG; Echinochloa crus-galli, 312 h, read-out: evaluation (100=total damage to plant; 0=no damage to plant)): 60%; pest or weed control at 1000 g/ha (IPOHE; Ipomoea hederacea, 312 h, read-out: evaluation (100=total damage to plant; 0=no damage to plant)): 80%; pest or weed control at 1000 g/ha (SETFA; Setaria faberi, 312 h, read-out: evaluation (100=total damage to plant; 0=no damage to plant)): 20%; pest or weed control at 1000 g/ha (weeds and/or crops; Amaranthus retroflexus, AMARE, read-out: damage to plant AMARE (100=total damage; 0=no damage)): 70%; pest or weed control at 1000 g/ha (weeds and/or crops; Echinochloa crus-galli, ECHCG, read-out: damage to plant ECHCG (100=total damage; 0=no damage)): 20%; pest or weed control at 1000 g/ha (weeds and/or crops; Ipomoea hederacea, IPOHE, read-out: damage to plant IPOHE (100=total damage; 0=no damage)): 70%; pest or weed control at 1000 g/ha (weeds and/or crops; Setaria faberi, SETFA, read-out: damage to plant SETFA (100=total damage; 0=no damage)): 10%
